In patent US8716293B2, “Macrocyclic integrase inhibitors” (Janssen R&D Ireland, priority 2010, dated 2014):

Key:
HIV-1 SDM strain N155H = experiment: cell-based HIV-1 replication assay in MT4-LTR-EGFP cells, N155H mutant; settings: fold change in activity against N155H mutant compared to wild type HIV
Source text: (§1) MT4-LTR-enhanced green fluorescent protein (EGFP) cells were obtained by transfecting MT4 cells with a selectable construct encompassing the coding sequences for the HIV LTR as a promoter for the expression of EGFP and subsequent selection of permanently transfected cells. MT4-cytomegalovirus (CMV)-EGFP cells were obtained by selection for permanently transformed MT4 cells with a CMV-EGFP reporter gene. Cell lines were maintained in RPMI 1640 medium supplemented with 10% heat-inactivated fetal calf serum, 2 mM L-glutamine, 0.1% NaHCO3, and antibiotics (0.02% gentamicin and 0.8% G418) and incubated in a humidified incubator with a 5% CO2 atmosphere at 37° C.
(§2) N155H and Q148R mutant Integrase coding sequences were constructed in the pUC19-5′HXB2D vector (XbaI-SalI fragment of pHXB2D), containing the HIV-1 clone HXB2D IN coding sequence, by using a QuikChange site-directed mutagenesis kit (Stratagene, La Jolla, Calif.) and HPLC-purified primers (Genset Oligos, La Jolla, Calif.). Altered plasmid sequences were confirmed by dideoxyribose sequencing. For generation of site-directed mutant (SDM) virus stocks, MT4 cells were subcultured at a density of 250,000 cells/ml on the day before transfection. Cells were pelleted and resuspended in phosphate-buffered saline at a concentration of 3.1×10^6 cells/ml. A 0.8-ml portion ([…]) was used for each transfection. Transfections were performed with a Bio-Rad Gene Pulser (Bio-Rad, Hercules, Calif.) with 0.4-cm electrode cuvettes (Bio-Rad). Cells were electroporated with 10 μg of SalI-linearized pUC19-3′HXB2D (SalI-XbaI fragment of pHXB2D) and 5 μg of SalI-digested SDM at 250 μF and 300 V, followed by a 30-min incubation at room temperature. Ten ml of fresh culture medium was then added to the suspension of transfected cells, and incubation was performed at 37° C. in a humidified atmosphere with 5% CO2. Cell cultures were monitored for the appearance of cytopathic effect (CPE).
(§3) The inhibitory antiviral activity of different compounds was determined in a cell-based HIV-1 replication assay. MT4-LTR-EGFP cells (150,000 cells/ml) were infected with HIV-1 (IIIB or SDM strains Q148R, N155H, or G140S-Q148H; multiplicity of infection [MOI] of 0.0025) in the presence or absence of inhibitor. After 3 days of incubation, the inhibition of HIV replication was quantified by measuring EGFP fluorescence, and expressed as the compound concentration required for 50% inhibition of HIV-1 replication in cell culture (EC50).

[1] = system: HIV-1 SDM strain G140S-Q148H; experiment: cell-based HIV-1 replication assay in MT4-LTR-EGFP cells, G140S-Q148H mutant; settings: fold change in activity against G140S-Q148H mutant compared to wild type HIV
Source text: as §1, §2, §3

HIV-1 SDM strain Q148R = experiment: cell-based HIV-1 replication assay in MT4-LTR-EGFP cells, Q148R mutant; settings: fold change in activity against Q148R mutant compared to wild type HIV
Source text: as §1, §2, §3

HIV-1 LAI (IIIB) = experiment: antiviral assay in the presence of 50% human serum; assay type: cell-based; settings: MT-4-LTR-EGFP cells, 4 days, resazurin cell viability
Protocol: For the antiviral assay in the presence of 50% human serum, MT-4-LTR-EGFP cells were infected with HIV-1 LAI (IIIB) at a MOI of 0.001 to 0.01 CCID50/cell in RPMI1640 medium. Following 1 h of incubation, cells were washed and plated into a 96-well plate containing serial dilutions of test compound in the presence of 10% fetal calf serum or 50% human serum. After 4 days of incubation, the EC50 in the presence of 50% human serum (EC50/HS) was determined by a cell viability assay using resazurin (as described by Fields, R. D., and M. V. Lancaster (1993) Am. Biotechnol. Lab. 11:48-50).

[2] = system: cryopreserved hepatocytes of human subjects; experiment: metabolic stability in human hepatocytes; assay type: in vitro ADME; settings: 1 μM, percentage turnover
Protocol: (§4) For determining in vitro metabolic stability, cryopreserved hepatocytes from Sprague Dawley rats and of human subjects (pool of male and female) were obtained from an external supplier (Cellz Direct Inc., Paisly, UK). Tested compounds were dissolved in DMSO and this stock solution was used to spike rat and human hepatocyte cell cultures (10^6 cells/ml) at a final concentration of 1 μM (final percentage of DMSO was 0.02% (v/v)). Incubations were performed for up to 60 min at approximately 37° C. and terminated by the addition of two volumes of DMSO. Samples were then centrifuged and aliquots of the supernatant analyzed using liquid chromatography (LC) with electrospray mass spectrometric detection (MS/MS) to monitor the disappearance of parent compound by single reaction monitoring (SRM) and reverse-phase chromotatography with a gradient of acetonitrile and water containing 0.1% (v/v) formic acid. Based on peak area, the percentage of parent compound remaining after 15 and 60 min incubation was calculated and the results, expressed as percentage turnover (TO) relative to time zero controls.

[3] = pharmacokinetic evaluation in the rat; assay type: in vivo, male Sprague-Dawley rats; settings: intravenous bolus 2 mg/kg; for CLp: plasma clearance; for t1/2: terminal phase elimination half-life; for Vss: volume of distribution at steady-state
Protocol: For determining the pharmacokinetic properties in rat, each HIV integrase inhibitor was dissolved in PEG400/normal saline (70:30 (v/v)) at a nominal concentration of 1 mg/ml and administered (2 ml/kg) to male Sprague-Dawley rats (n=3 per test compound) as an intravenous bolus via a saphenous vein at a dose level of 2 mg/kg. […] Plasma was obtained by centrifugation and stored at −20° C. prior to analysis. Analysis was performed using liquid chromatography (LC) with tandem mass spectrometric detection (MS/MS) in positive ion mode. Each HIV integrase inhibitor was eluted from a reversed-phase column with a gradient of acetonitrile and water containing 0.1% (v/v) formic acid. At the time of analysis plasma samples (50 p. 1) were thawed and […] with 200 μl of acetonitrile containing 0.1% (v/v) formic acid and centrifuged. Aliquots of the supernatant (100 μl) were diluted with 200 μl of water containing 25% (v/v) methanol and 0.1% (v/v) formic acid and injected via an electrospray interface directly into the Mass Spectrometer. Calibration standards and quality controls were prepared in rat plasma at the same time as the samples and analyzed before and after the samples containing HIV integrase inhibitor. Non-compartmental pharmacokinetic analysis of the plasma concentration-time curves was performed using WinNonLin software to provide estimates of the plasma clearance (CLp), volume of distribution at steady-state (Vss) and terminal phase elimination half-life (t1/2).

[4] = system: cryopreserved hepatocytes from Sprague Dawley rats; experiment: metabolic stability in rat hepatocytes; assay type: in vitro ADME; settings: 1 μM, percentage turnover
Protocol: as §4

Structure (SMILES) | FC-N155H (HIV-1 SDM strain N155H) | FC-G140S-Q148H [1] | FC-Q148R (HIV-1 SDM strain Q148R) | EC50 (HIV-1 LAI (IIIB)) [nM] | Human (% TO) 15 min ([2]; 15 min incubation) [% TO] | Human (% TO) 60 min ([2]; 60 min incubation) [% TO] | CLp [3] [mL/min/kg] | t1/2 [3] [h] | Vss [3] [L/kg] | Rat (% TO) 15 min ([4]; 15 min incubation) [% TO] | Rat (% TO) 60 min ([4]; 60 min incubation) [% TO]
CCN1C[C@H](C)n2c(c(O)c3c(=O)n4nc(c32)NCCCCCCN(C)C(=O)c2cc(F)ccc2C4)C1=O [Compound 42] | 3.3 | 2.6 | 0.5 | 3170 | – | – | – | – | – | – | –
CCN1C[C@H](C)n2c(c(O)c3c(=O)n4nc(c32)N(C)CCCCCCNC(=O)c2cc(F)ccc2C4)C1=O [Compound 43] | 2.0 | 0.8 | 0.5 | 101 | – | – | – | – | – | – | –
CCN1C[C@H](C)n2c(c(O)c3c(=O)n4nc(c32)N2CCN(CC2)C(=O)CCCOc2cc(F)ccc2C4)C1=O [Compound 44] | 3.9 | 1.3 | 0.7 | 6 | 20 | 43 | 16 | 5.2 | 1.8 | 48 | 70
CCN1C[C@H](C)n2c(c(O)c3c(=O)n4nc(c32)N2CCN(CC2)C(=O)CCCCOc2cc(F)ccc2C4)C1=O [Compound 45] | 4.3 | 1.6 | 0.8 | 6 | – | – | 8 | 4.2 | 0.9 | – | –
CCN1C[C@H](C)n2c(c(O)c3c(=O)n4nc(c32)N(C)CCCCCCOc2cc(F)ccc2C4)C1=O [Compound 46] | 40.8 | 3.6 | 0.3 | 1490 | – | – | – | – | – | – | –
CCN1C[C@H](C)n2c(c(O)c3c(=O)n4nc(c32)N2CCN(CCCCOc3cc(F)ccc3C4)S2(=O)=O)C1=O [Compound 47] | 4.4 | 3.2 | 0.7 | 4 | – | – | – | – | – | – | –
CCN1C[C@H](C)n2c(c(O)c3c(=O)n4nc(c32)N(C)S(=O)(=O)CC/C=C\COc2cc(F)ccc2C4)C1=O [Compound 49] | 5.3 | 1.6 | 0.5 | 8 | – | – | – | – | – | – | –
CCN1C[C@H](C)n2c(c(O)c3c(=O)n4nc(c32)N(C)S(=O)(=O)CCC/C=C\COc2cc(F)ccc2C4)C1=O [Compound 50] | 2.8 | 1.2 | 0.3 | 11 | – | – | – | – | – | – | –
CCN1C[C@H](C)n2c(c(O)c3c(=O)n4nc(c32)N(C)S(=O)(=O)CCC/C=C/COc2cc(F)ccc2C4)C1=O [Compound 51] | 9.6 | 3.4 | 0.4 | 13 | – | – | – | – | – | – | –
